Results on three compounds are retold here after ChEMBL document CHEMBL4837249, “Discovery of Potent Antiallergic Agents Based on an o-Aminopyridinyl Alkynyl Scaffold” (J Med Chem, 2021).

In experiment [1] the target is Tyrosine-protein kinase BTK (Homo sapiens) (UniProt Q06187). Kind of experiment: Inhibition of human full length recombinant BTK at 5 nM by radiometric scintillation counting analysis relative to control.
The target in experiment [2] is Tyrosine-protein kinase HCK (Homo sapiens, UniProt P08631). The experiment is described as follows: Inhibition of human recombinant HCK (230 to 497) at 5 nM by radiometric scintillation counting analysis relative to control.
Chain of Tyrosine-protein kinase HCK (P08631 2-526 limits assumed): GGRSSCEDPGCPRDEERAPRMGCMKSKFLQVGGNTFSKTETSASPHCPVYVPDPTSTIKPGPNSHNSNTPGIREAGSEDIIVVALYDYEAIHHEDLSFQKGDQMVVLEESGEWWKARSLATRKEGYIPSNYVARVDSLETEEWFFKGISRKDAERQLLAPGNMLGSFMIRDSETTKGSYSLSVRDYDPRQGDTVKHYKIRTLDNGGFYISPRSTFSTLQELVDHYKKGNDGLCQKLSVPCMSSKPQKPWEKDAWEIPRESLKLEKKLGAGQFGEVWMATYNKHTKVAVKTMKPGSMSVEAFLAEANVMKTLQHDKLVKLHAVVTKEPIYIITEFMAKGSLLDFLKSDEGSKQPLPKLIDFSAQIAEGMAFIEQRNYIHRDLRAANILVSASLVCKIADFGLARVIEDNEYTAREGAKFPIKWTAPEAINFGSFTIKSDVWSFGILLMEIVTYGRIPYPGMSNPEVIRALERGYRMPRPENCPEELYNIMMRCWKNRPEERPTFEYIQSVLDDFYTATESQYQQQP
For experiment [3], the target named is T1, Tyrosine-protein kinase TXK (Homo sapiens) (UniProt P42681).
T1 sequence (whole entry): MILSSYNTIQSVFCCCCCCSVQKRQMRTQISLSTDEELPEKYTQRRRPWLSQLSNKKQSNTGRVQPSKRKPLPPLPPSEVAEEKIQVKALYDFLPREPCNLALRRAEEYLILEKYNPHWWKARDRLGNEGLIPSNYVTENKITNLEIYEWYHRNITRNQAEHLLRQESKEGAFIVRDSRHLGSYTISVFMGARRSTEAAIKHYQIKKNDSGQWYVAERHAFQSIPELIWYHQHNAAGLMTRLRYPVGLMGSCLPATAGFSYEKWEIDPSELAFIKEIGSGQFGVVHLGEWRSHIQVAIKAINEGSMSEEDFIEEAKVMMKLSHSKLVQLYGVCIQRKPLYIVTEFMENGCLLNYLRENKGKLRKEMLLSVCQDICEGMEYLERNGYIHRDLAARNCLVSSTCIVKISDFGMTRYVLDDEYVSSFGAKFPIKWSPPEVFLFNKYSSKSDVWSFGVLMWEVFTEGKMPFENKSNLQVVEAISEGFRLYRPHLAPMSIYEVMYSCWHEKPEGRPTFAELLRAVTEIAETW
The experiment is described as follows: Inhibition of human recombinant […] (256 to end) at 5 nM by radiometric scintillation counting analysis relative to control.

Experiment [4] deals with T2, Tyrosine-protein kinase ZAP-70 (Homo sapiens) (UniProt P43403).
T2 sequence (whole entry): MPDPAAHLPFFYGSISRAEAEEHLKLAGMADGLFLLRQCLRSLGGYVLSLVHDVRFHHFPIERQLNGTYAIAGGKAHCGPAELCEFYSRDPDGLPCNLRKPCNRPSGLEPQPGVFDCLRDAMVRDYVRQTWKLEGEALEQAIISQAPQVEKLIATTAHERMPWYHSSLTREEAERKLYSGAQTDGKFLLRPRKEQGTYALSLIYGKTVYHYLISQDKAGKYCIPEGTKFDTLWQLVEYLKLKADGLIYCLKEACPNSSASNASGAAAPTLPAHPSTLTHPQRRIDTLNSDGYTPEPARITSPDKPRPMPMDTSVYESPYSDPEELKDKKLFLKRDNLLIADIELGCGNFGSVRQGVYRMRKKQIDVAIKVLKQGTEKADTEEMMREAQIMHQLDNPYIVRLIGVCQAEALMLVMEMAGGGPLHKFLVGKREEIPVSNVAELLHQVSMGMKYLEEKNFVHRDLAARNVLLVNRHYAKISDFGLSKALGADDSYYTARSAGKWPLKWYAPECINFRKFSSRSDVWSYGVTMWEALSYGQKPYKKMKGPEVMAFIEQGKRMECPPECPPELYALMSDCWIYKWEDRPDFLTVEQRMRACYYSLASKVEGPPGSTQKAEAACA
The experiment is described as follows: Inhibition of human full length recombinant ZAP70 at 5 nM by radiometric scintillation counting analysis relative to control.

In experiment [5] the target is T3, Tyrosine-protein kinase CSK (Homo sapiens, UniProt P41240). The experiment is described as follows: Inhibition of human full length recombinant CSK at 50 nM by radiometric scintillation counting analysis relative to control.
T3 sequence (P41240 2-450 limits assumed): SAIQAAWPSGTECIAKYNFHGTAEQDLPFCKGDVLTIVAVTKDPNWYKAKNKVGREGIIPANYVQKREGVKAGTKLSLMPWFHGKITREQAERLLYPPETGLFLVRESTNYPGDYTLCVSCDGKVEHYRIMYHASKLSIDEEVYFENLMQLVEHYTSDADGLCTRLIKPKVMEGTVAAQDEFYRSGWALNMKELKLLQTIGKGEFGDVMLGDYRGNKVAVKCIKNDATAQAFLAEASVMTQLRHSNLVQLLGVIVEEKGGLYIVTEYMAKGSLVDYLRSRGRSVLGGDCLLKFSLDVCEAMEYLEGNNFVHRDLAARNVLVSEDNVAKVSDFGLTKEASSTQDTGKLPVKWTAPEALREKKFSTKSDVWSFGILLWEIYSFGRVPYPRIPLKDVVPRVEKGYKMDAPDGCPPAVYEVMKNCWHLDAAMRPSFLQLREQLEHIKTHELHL
Experiment [6] addresses Tyrosine-protein kinase Lyn (Homo sapiens, UniProt P07948). Kind of experiment: Inhibition of human full length recombinant LYN at 50 nM by radiometric scintillation counting analysis relative to control.
Experiment [7] concerns the target Tyrosine-protein kinase Yes (Homo sapiens, UniProt P07947). The experiment is described as follows: Inhibition of human full length recombinant Yes at 50 nM by radiometric scintillation counting analysis relative to control.
Experiment [8] addresses Tyrosine-protein kinase ABL1 (Homo sapiens, UniProt P00519). The experiment is described as follows: Inhibition of human recombinant ABL1 using ATP/Ulight-TK peptide at 500 nM incubated for 15 mins relative to control.
In experiment [9] the target is T4, Cytoplasmic tyrosine-protein kinase BMX (Homo sapiens) (UniProt P51813).
T4 sequence (whole entry): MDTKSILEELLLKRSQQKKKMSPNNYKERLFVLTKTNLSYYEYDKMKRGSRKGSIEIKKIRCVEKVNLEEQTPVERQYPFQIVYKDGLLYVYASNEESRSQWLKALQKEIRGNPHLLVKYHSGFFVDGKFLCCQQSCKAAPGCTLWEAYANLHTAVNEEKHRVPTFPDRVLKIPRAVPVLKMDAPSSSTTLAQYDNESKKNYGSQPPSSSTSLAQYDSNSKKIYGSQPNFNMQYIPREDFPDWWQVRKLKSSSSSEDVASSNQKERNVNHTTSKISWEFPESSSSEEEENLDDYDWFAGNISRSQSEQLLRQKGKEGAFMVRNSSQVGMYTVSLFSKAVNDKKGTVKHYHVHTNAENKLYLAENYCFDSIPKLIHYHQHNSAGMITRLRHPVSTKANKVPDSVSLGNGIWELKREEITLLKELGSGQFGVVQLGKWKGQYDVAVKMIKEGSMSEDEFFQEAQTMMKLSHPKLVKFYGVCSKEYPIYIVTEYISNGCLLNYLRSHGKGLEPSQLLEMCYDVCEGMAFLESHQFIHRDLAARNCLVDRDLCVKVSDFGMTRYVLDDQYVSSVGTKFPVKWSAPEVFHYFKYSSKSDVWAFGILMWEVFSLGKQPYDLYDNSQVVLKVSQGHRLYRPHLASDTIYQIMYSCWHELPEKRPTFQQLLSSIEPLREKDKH
The experiment is described as follows: Inhibition of human full length recombinant Bmx at 500 nM by radiometric scintillation counting analysis relative to control.

Experiment [10] has as its target T3, Tyrosine-protein kinase CSK. The experiment is described as follows: Inhibition of human full length recombinant CSK at 500 nM by radiometric scintillation counting analysis relative to control.
In experiment [11] the target is Tyrosine-protein kinase Fgr (Homo sapiens, UniProt P09769). Kind of experiment: Inhibition of human recombinant FGR (456 to 770) at 500 nM by radiometric scintillation counting analysis relative to control.
Chain of Tyrosine-protein kinase Fgr (P09769 2-529 limits assumed): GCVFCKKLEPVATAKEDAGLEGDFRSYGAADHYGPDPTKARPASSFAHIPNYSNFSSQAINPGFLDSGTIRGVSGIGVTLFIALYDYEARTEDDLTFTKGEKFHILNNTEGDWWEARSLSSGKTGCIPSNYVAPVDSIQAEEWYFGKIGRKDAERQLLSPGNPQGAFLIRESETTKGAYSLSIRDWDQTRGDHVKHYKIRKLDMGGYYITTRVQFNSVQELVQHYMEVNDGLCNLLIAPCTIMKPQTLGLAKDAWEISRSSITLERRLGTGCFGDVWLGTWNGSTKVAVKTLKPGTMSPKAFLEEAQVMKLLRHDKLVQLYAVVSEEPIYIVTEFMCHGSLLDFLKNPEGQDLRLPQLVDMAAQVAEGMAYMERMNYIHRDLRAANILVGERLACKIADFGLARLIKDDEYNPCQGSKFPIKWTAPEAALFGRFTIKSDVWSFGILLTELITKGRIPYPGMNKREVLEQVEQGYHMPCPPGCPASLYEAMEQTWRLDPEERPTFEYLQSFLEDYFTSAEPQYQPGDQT
Experiment [12] has as its target Tyrosine-protein kinase Fyn (Homo sapiens, UniProt P06241). Kind of experiment: Inhibition of human recombinant Fyn (218 to end) at 500 nM incubated for 15 mins relative to control.
Experiment [13] deals with T1, Tyrosine-protein kinase TXK (Homo sapiens). Kind of experiment: Inhibition of human recombinant Txk (256 to end) at 500 nM by radiometric scintillation counting analysis relative to control.
Experiment [14] addresses T2, Tyrosine-protein kinase ZAP-70 (Homo sapiens). Kind of experiment: Inhibition of human full length recombinant ZAP70 at 500 nM by radiometric scintillation counting analysis relative to control.
The target of experiment [15] is Tyrosine-protein kinase JAK1 (Homo sapiens) (UniProt P23458). Kind of experiment: Inhibition of human recombinant JAK1 at 500 nM radiometric scintillation counting analysis relative to control.
Chain of Tyrosine-protein kinase JAK1 (Homo sapiens) (P23458 whole entry): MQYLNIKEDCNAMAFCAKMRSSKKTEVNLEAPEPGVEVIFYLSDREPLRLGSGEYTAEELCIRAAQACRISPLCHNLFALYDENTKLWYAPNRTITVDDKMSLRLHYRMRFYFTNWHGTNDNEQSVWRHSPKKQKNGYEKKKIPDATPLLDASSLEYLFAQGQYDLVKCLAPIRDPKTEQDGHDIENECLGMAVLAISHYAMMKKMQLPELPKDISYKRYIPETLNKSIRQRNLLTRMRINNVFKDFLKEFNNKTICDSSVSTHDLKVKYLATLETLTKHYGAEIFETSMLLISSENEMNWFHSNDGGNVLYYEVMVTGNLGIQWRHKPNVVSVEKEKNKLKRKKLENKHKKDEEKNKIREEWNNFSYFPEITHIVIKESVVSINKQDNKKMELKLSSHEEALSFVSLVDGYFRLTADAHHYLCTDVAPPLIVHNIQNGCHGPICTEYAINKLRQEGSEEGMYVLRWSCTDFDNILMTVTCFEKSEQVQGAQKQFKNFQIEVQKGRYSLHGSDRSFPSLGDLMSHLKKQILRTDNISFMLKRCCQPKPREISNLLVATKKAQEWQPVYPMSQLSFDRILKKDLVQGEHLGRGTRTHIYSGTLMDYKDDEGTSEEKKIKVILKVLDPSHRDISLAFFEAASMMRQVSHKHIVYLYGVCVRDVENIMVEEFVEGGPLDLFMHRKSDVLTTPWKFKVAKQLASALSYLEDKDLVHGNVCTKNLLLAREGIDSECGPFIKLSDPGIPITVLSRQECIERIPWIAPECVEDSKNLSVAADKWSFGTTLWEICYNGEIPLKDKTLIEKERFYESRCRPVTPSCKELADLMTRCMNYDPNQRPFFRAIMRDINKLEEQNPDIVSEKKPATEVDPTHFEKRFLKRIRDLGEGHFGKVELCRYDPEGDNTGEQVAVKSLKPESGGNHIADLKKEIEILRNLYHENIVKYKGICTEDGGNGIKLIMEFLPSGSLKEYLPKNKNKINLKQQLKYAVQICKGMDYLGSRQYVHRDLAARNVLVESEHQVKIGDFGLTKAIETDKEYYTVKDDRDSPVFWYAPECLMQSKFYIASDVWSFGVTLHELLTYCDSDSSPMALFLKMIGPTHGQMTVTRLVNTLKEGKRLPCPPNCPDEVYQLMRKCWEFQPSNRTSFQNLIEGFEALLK

Chain of Tyrosine-protein kinase BTK (Homo sapiens) (Q06187 whole entry): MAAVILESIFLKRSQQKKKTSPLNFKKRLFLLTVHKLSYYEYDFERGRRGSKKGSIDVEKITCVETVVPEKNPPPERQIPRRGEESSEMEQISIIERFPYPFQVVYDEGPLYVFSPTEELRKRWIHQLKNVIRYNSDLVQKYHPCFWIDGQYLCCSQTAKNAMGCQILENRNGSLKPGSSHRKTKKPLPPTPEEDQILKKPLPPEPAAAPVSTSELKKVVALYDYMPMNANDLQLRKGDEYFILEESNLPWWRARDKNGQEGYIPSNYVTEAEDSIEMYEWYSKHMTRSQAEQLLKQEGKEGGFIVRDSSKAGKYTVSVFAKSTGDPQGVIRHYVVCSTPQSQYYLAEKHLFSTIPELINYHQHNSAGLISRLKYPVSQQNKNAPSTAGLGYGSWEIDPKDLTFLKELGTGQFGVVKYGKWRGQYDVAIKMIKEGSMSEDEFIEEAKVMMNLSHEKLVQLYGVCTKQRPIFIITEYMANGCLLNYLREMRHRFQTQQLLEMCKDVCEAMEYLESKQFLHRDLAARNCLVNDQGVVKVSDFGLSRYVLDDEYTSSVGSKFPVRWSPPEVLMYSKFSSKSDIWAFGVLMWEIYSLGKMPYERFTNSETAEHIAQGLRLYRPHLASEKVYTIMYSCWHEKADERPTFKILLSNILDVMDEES
Chain of Tyrosine-protein kinase ABL1 (P00519 whole entry): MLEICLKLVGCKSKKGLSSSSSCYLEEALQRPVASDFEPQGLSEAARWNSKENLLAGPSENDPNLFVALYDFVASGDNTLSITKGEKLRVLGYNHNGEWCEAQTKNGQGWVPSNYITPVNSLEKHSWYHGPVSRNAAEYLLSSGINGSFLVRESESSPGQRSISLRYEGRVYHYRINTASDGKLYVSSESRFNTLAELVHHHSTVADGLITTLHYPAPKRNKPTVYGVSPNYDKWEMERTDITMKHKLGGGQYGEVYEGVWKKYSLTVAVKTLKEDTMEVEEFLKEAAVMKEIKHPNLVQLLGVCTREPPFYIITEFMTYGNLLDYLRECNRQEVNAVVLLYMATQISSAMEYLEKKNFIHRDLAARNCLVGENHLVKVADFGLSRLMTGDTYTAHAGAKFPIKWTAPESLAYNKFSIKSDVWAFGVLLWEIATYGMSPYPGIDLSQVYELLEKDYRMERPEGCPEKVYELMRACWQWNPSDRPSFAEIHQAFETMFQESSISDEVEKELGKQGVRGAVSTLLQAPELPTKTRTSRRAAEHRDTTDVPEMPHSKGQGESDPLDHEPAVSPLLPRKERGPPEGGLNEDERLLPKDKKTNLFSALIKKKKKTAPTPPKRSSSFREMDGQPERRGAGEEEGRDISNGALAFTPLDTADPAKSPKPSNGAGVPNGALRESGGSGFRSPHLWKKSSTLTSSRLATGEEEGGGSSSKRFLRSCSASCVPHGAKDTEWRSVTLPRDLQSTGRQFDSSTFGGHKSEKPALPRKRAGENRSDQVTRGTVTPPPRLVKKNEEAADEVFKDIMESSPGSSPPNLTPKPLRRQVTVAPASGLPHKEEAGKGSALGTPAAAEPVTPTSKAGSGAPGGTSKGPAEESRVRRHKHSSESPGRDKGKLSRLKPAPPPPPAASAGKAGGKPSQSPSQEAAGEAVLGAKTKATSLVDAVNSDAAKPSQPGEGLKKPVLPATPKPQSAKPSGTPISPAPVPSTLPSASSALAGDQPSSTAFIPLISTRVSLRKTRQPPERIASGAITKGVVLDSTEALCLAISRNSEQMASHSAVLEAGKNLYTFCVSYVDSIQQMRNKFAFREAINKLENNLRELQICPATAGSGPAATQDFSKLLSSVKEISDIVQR
Chain of Tyrosine-protein kinase Yes (P07947 2-543 limits assumed): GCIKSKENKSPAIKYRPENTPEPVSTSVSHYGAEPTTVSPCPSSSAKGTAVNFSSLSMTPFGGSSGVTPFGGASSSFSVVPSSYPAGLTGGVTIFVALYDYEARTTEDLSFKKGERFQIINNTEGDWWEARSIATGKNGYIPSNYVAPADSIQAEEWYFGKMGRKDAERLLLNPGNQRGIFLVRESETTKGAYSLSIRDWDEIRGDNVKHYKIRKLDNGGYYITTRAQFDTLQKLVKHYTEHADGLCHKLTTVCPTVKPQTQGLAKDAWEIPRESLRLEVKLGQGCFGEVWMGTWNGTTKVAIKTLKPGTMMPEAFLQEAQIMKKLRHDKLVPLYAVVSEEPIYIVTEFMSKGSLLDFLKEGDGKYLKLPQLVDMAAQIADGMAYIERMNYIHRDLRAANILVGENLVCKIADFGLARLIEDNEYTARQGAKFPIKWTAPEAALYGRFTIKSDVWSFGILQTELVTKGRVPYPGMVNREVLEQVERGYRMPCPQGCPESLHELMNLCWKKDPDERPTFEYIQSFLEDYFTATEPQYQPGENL

In the case of `Cc1ccc(C(=O)Nc2ccc(OC(F)(F)F)cc2)cc1C#Cc1cc(-c2cnn(C)c2)cnc1N`, the inhibition in [1] is -4%; in experiment [2], 68%; in experiment [3], 12%; in experiment [4], -7%; in experiment [5], 4%; in experiment [6], 99%. Further, the inhibition was determined as 39% in experiment [7]; 102% in experiment [8]; 20% in experiment [9]; 23% in experiment [10]; 77% in [11]; 96% in [12]. Moreover, the inhibition in experiment [13] was 42%; in experiment [14], -4%; in experiment [15], -2%.

Regarding `Cc1ccc(C(=O)Nc2cc(C(F)(F)F)cc(C(F)(F)F)c2)cc1C#Cc1cc(-c2cnn(C)c2)cnc1N`, the inhibition in [1] came to 16%; in experiment [2] it was 11%; in [3], 17%; in [4], 9%; in experiment [5], 34%; in [6] it was 105%. The inhibition is 14% in experiment [7]; 104% in experiment [8]; 89% in experiment [9]; 71% in experiment [10]; 101% in [11]; 97% in experiment [12]. The figures for the inhibition in experiment [13], in experiment [14] and in experiment [15] were 86%, -1% and 0%, respectively.

As to `Cc1ccc(C(=O)Nc2ccc(Cl)cc2Cl)cc1C#Cc1cc(-c2cnn(C)c2)cnc1N`, the inhibition in experiment [1] was 8%; in experiment [2], 1%; in experiment [3], 2%; in experiment [4], 20%; in [5], 28%; in experiment [6], 93%. The inhibition in experiment [7] stood at 18%; in [8], 89%; in [9] it was 23%; in experiment [10] it was 39%; in [11] it was 46%; in experiment [12], 64%. Also, the inhibition in experiment [13] was -1%; in [14], 20%; in experiment [15], -8%.

The inhibition is the change of the read-out against control, counted positive when it falls.
